# Laboratory results from article PMC7864049, “Co-crystal structures of HIV TAR RNA bound to lab-evolved proteins show key roles for arginine relevant to the design of cyclic peptide TAR inhibitors” (The Journal of Biological Chemistry, 2021).
# “And” between values parts separate entries of the source, which are not always exact repeats. Equal entries are not always repeated. “Also recorded” adds a separate entry of the source. Where two headings read alike, the source gives them in different places. Where no end group is shown, it is not given here.
# Tests used:
# [1] = test system: HIV-1 TAR RNA (biotinylated TAR 27-mer); format: binding
# HIV-1 TAR RNA (27-mer) = format: binding
# [2] = test system: Tat ARM binding to HIV-1 TAR RNA
# [3] = pH 7.5, read-out: KD (apparent)
substance,measurement,setting,value
"PRQRTPRGQ (also: sidechain bridge or staple (positions not given here)) [TB-CP-6.7a, two terminal cysteines cross-linked via a methylene bridge]",koff,[1],0.018 ± 0.0001 s⁻¹
same,koff × 10^−2,[1],1.90 10^−2 s^−1
same,kon,[1],863.0 ± 59.0 M⁻¹ s⁻¹ and 803 ± 14 M⁻¹ s⁻¹
same,Kd,[1]; [3],22 µM
same,Kd,[1]; read-out: KD,23 ± 0.1 µM
"RRRTPR (also: sidechain bridge or staple (positions not given here)) [TB-CP-6.9a, cyclic peptide (11-mer]",Kd,HIV-1 TAR RNA (27-mer),5 ± 0.6 µM
same,ΔG°,HIV-1 TAR RNA (27-mer),-7.1 ± 0.02 kcal/mol
same,ΔH°,HIV-1 TAR RNA (27-mer),−7.2 ± 0.2 kca/mol
same,−TΔS°,HIV-1 TAR RNA (27-mer),0.1 ± 0.2 kcal/mol
same,Kd,HIV-1 TAR RNA (27-mer); pH 7.5,5.3 ± 0.2 µM
same,block of Tat ARM binding to TAR,[2],formed a complex with TAR that occluded Tat-binding sites; also recorded: effectively block the interaction of TAR with the Tat ARM
same,TAR binding in presence of tRNA,[1],capable of binding under this condition
same,fold difference in TAR-binding affinity,[1],~6 -fold
same,fold increase in kon,[1],8 -fold
same,koff,[1],0.024 ± 0.0001 s⁻¹
same,koff × 10^−2,[1],2.75 10^−2 s^−1
same,kon,[1],7463 ± 130 M⁻¹ s⁻¹
same,kon × 10^2,[1]; 0.625–20 μM,76.50 10^2 M^−1s^−1
same,Kd,[1]; [3],3.6 µM
same,Kd,[1]; read-out: KD,3.2 ± 0.8 µM
